{"source": "the OPERA property sets (Mansouri et al. 2018)"}
{"smiles": "COc1ccccc1C(N)=O", "values": [{"measurement": "solubility", "setting": "20 °C", "result": 16.5, "unit": "mM"}]}
{"smiles": "CCC1(CC)C(=O)NC(=O)N=C1N", "values": [{"measurement": "solubility", "setting": "20 °C", "result": 40.1, "unit": "mM"}]}
{"smiles": "CCCc1cc(F)ccc1O", "values": [{"measurement": "solubility", "result": 13, "unit": "mM"}]}
{"smiles": "CCCSS(=O)CCC", "note": "(configuration not stated)", "values": [{"measurement": "solubility", "result": 120, "unit": "mM"}]}
{"smiles": "O=C1COc2ccccc2N1", "values": [{"measurement": "solubility", "setting": "20 °C", "result": 2.68, "unit": "mM"}]}
{"smiles": "O=C(c1ccc(Cl)cc1Cl)N(O)c1ccccc1", "values": [{"measurement": "solubility", "result": 0.213, "unit": "mM"}]}
{"smiles": "O=C(O)c1ccccc1C(=O)c1ccc(O)cc1", "values": [{"measurement": "solubility", "setting": "21 °C", "result": 2.61, "unit": "mM"}]}
{"smiles": "CC(NC(=O)C=CC(=O)O)C(=O)O", "note": "(configuration not stated)", "values": [{"measurement": "solubility", "result": 107, "unit": "mM"}]}
{"smiles": "CCCCCCOC(=O)c1ccc(O)cc1", "values": [{"measurement": "solubility", "setting": "30 °C", "result": 0.112, "unit": "mM"}]}
{"smiles": "OCc1cc(Cl)c(Cl)c(Cl)c1", "values": [{"measurement": "solubility", "setting": "20 °C", "result": 0.804, "unit": "mM"}]}
{"smiles": "OCc1c(Cl)c(Cl)c(Cl)c(Cl)c1Cl", "values": [{"measurement": "solubility", "setting": "20 °C", "result": 0.00713, "unit": "mM"}]}
{"smiles": "CCOc1ccc(NC(=O)CO)cc1", "values": [{"measurement": "solubility", "result": 7.84, "unit": "mM"}]}
{"smiles": "O=C(O)c1cc(=O)nc(-c2ccccc2)[nH]1", "values": [{"measurement": "solubility", "result": 6.15, "unit": "mM"}]}
{"smiles": "CC(C)(O)CCl", "values": [{"measurement": "solubility", "setting": "20 °C", "result": 1450, "unit": "mM"}]}
{"smiles": "O=C(O)C=CCCC(=O)O", "values": [{"measurement": "solubility", "result": 62.4, "unit": "mM"}]}
{"smiles": "Cc1ccccc1OCC(=O)O", "values": [{"measurement": "solubility", "setting": "25 °C", "result": 3.61, "unit": "mM"}]}
{"smiles": "CN(CCCCC(=O)O)S(=O)(=O)c1ccccc1", "values": [{"measurement": "solubility", "setting": "20 °C", "result": 27.6, "unit": "mM"}]}
{"smiles": "Cc1nc2c(=O)n(C)c(=O)n(C)c2nc1C", "values": [{"measurement": "solubility", "setting": "20 °C", "result": 45.4, "unit": "mM"}]}
{"smiles": "CCC1OC(=O)c2ccccc21", "note": "(configuration not stated)", "values": [{"measurement": "solubility", "setting": "25 °C", "result": 17.9, "unit": "mM"}]}
{"smiles": "CCc1c[nH]c(=O)[nH]c1=O", "values": [{"measurement": "solubility", "setting": "25 °C", "result": 11.4, "unit": "mM"}]}
{"smiles": "CC(=O)Nc1ccc2c(c1)C(=O)OC2", "values": [{"measurement": "solubility", "setting": "25 °C", "result": 2.51, "unit": "mM"}]}
{"smiles": "CCC1(CC)OC(=O)c2ccccc21", "values": [{"measurement": "solubility", "setting": "25 °C", "result": 1.37, "unit": "mM"}]}
{"smiles": "CC(C)(O)CC(C)(O)c1cccc2ccccc12", "note": "(configuration not stated)", "values": [{"measurement": "solubility", "setting": "20 °C", "result": 0.573, "unit": "mM"}]}
{"smiles": "CC(=O)C1CC(CC(=O)O)C1(C)C", "note": "(configuration not stated)", "values": [{"measurement": "solubility", "setting": "20 °C", "result": 266, "unit": "mM"}]}
{"smiles": "NNC(N)=S", "values": [{"measurement": "solubility", "setting": "20 °C", "result": 110, "unit": "mM"}]}
{"smiles": "CCCCC(O)CN(N=Cc1ccc([N+](=O)[O-])o1)C(N)=O", "note": "(configuration not stated)", "values": [{"measurement": "solubility", "setting": "25 °C", "result": 0.268, "unit": "mM"}]}
{"smiles": "CCc1nc2ncnc(O)c2nc1CC", "values": [{"measurement": "solubility", "setting": "20 °C", "result": 12.2, "unit": "mM"}]}
{"smiles": "COC(=O)c1cc([N+](=O)[O-])ccc1C(=O)O", "values": [{"measurement": "solubility", "setting": "20 °C", "result": 19, "unit": "mM"}]}
{"smiles": "Cc1cc(C)nc(C(N)=O)n1", "values": [{"measurement": "solubility", "setting": "20 °C", "result": 1320, "unit": "mM"}]}
{"smiles": "CCC(=O)OCc1ccc(Cl)cc1Cl", "values": [{"measurement": "solubility", "setting": "20 °C", "result": 0.858, "unit": "mM"}]}
{"smiles": "CC(C)C(CC(=O)O)C(=O)O", "note": "(configuration not stated)", "values": [{"measurement": "solubility", "setting": "20 °C", "result": 391, "unit": "mM"}]}
{"smiles": "NC(=O)N/N=C/[C@H](O)[C@@H](O)[C@@H](O)[C@H](O)CO", "values": [{"measurement": "solubility", "setting": "23 °C", "result": 222, "unit": "mM"}]}
{"smiles": "CC(=O)NCC(=O)Nc1ccccc1", "values": [{"measurement": "solubility", "setting": "20 °C", "result": 27.1, "unit": "mM"}]}
{"smiles": "O=[N+]([O-])c1ccc(CO)cc1", "values": [{"measurement": "solubility", "setting": "20 °C", "result": 13.1, "unit": "mM"}]}
{"smiles": "CNC(CC(C)C)C(=O)O", "note": "(stereo in doubt)", "values": [{"measurement": "solubility", "setting": "25 °C", "result": 306, "unit": "mM"}]}
{"smiles": "Cc1nn(-c2ccccc2)c(N)c1C", "values": [{"measurement": "solubility", "result": 21.4, "unit": "mM"}]}
{"smiles": "CC(C)COC(=O)c1ccc(N)cc1", "values": [{"measurement": "solubility", "setting": "20 °C", "result": 1.14, "unit": "mM"}]}
{"smiles": "CCOC(=O)c1ccccc1C(=O)c1ccccc1", "values": [{"measurement": "solubility", "setting": "20 °C", "result": 0.393, "unit": "mM"}]}
{"smiles": "CCCC(=O)OCCOCCOCCOC(=O)CCC", "values": [{"measurement": "solubility", "result": 27.6, "unit": "mM"}]}
{"smiles": "CCC1(c2ccccc2)NC(=O)NC1=O", "note": "(configuration not stated)", "values": [{"measurement": "solubility", "setting": "25 °C", "result": 6.76, "unit": "mM"}]}
{"smiles": "CCCCCCCCCCNC(=O)C(C)O", "note": "(configuration not stated)", "values": [{"measurement": "solubility", "setting": "25 °C", "result": 0.436, "unit": "mM"}]}
{"smiles": "CCn1cnc2c1c(=O)n(C)c(=O)n2C", "values": [{"measurement": "solubility", "setting": "30 °C", "result": 176, "unit": "mM"}]}
